One molecule from US20110091587A1, “PHASE II DETOXIFICATION AND ANTIOXIDANT ACTIVITY” (JOSLIN DIABETES CENTER, INC., priority 2007, published 2011) can be followed below.

The assay relates to GCS-1::GFP. In words: GCS-1::GFP reporter expression in the intestine of transgenic worms. The class given is in vivo, C. elegans. An excerpt: A nucleic acid encoding the GCS-1 promoter (as described in An and Blackwell, 2003, Genes & Dev., 17, 1882-1893) was fused with a sequence encoding green fluorescent protein (GFP) to prepare a reporter construct (gcs-1::GFP) using standard molecular biology techniques. This fusion construct gene was transferred into C. elegans (An and Blackwell, 2003, Genes & Dev., 17, 1882-1893; Mello, et al., EMBO J. 1991. 10(12):3959-70), and the obtained transformed C. elegans were used in the experiment. Under normal, less oxidative stress conditions, the gcs-1::GFP construct is expressed in the pharynx area and ASI of C. elegans, where fluorescence emission of GFP can be measured.
Experiments were conducted to study the influence of the various extracts prepared in Example 1 on expression of the GCS-1::GFP reporter construct (described in Example 2) in C. elegans, following the method according to An and Blackwell, 2003, Genes & Dev., 17, 1882-1893.
Before each experiment, approximately 20 L4 stage worms carrying the GCS-1::GFP reporter construct transgene were picked to NGM plates (a type of agar media, see Brenner, Genetics, 1974 May; 77(1):71-94), containing OP50 bacteria (an E. coli strain, food for C. elegans), and were allowed to grow for 2 to 3 days. The worms were transferred together with a saline medium (M9) for treatment with the test materials to a microcentrifuge tube by flooding the NGM plate surface with the saline medium (M9). The microcentrifuge tube was then centrifuged, and a supernatant was removed. The same procedure was repeated again to wash the worms. This washing removed the bacteria which had been given as food.
Once the worms were washed, they were added for incubation in the specified test materials at the specified concentrations for the following amounts of time. Initially, incubation time was 30 minutes, and was later extended to include 60, 90, and 120 minutes. After treatment for said given times, the worms were washed in M9 at least twice, transferred back to an NGM plate containing bacteria, and allowed to recover for about 30 minutes. The worms were then mounted on slides, and scored for GFP expression levels under a microscope. GFP expression levels in the intestines of each worm were evaluated based on three scores; high, medium, and low expressions. A high score was given for worms with GFP expression through out the intestine. GFP expression midway up the intestine was scored medium. A low score was given to worms with very little or no GFP expression in their intestine. […]

Setting [1] is: comparison of GCS-1::GFP, Δ2 and Δ2mut3 worms.

Take `C[S+]([O-])CCCCN=C=S` (stereo not shown) [sulforaphane]: under setting [1], the “regulation of GCS-1::GFP expression by SKN-1” value was “not partially regulated by SKN-1” and the “site of GCS-1::GFP expression” value was “about half of GCS-1::GFP expression was seen in the pharynx”. Moreover, the “effect on GCS-1::GFP expression” value (sulforaphane 1 mg/mL, after 30, 60 or 90 minutes of incubation) was “no effect was seen”. Also, the “incubation time at which effect was first seen” value (sulforaphane 1 mg/mL, longer incubation) is 6 h.
